From patent US10760110B2, “Antibiotic testing and screening system” (priority 2017, dated 2020)
Converted amounts (≈) assume the structure as drawn. Where two headings read alike, the source gives them in different places.

Key:
Details in all cases: Klebsiella pneumoniae
[1] = tested on: K. pneumoniae NVT1001 and its ΔompK35/36 and/or ΔramR mutants; test: Etest MIC, OmpK35/36 loss and AcrAB-TolC overexpression (ΔramR) strains (Table 6); type: cell-based, Klebsiella pneumoniae
Outline: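 MICs were read by Etest strip following the manufacturer's instructions, and values falling between standard two-fold dilutions were rounded up to the next two-fold step. Ceftazidime and cefotaxime were also tested by CLSI broth microdilution and interpreted against CLSI 2017 breakpoints; cephalothin used CLSI 2015 and moxifloxacin EUCAST 2017.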

[2] = tested on: K. pneumoniae NVT1001 ΔramRΔompK35/36 mutant and its revertants; test: Etest MIC, ΔramRΔompK35/36 mutant and its revertants (Table 7); type: cell-based
[3] = tested on: K. pneumoniae NVT1001 strains with carbapenemase plasmids; test: Etest MIC of β-lactams, OmpK35/36 loss, ΔramR and/or carbapenemase (Table 9); type: cell-based, Klebsiella pneumoniae
Outline: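 Cloned resistance genes in pACYC177 or pACYC184 were electroporated into K. pneumoniae NVT1001. MICs were determined by Etest and rounded up to the next two-fold value. Ceftazidime and cefotaxime against the blaOXA-48 construct were also tested by CLSI broth microdilution, with breakpoints from CLSI 2017 (cephalothin CLSI 2015, moxifloxacin EUCAST 2017).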

In the case of `C[C@@H](O)[C@H]1C(=O)N2C(C(=O)O)=C(S[C@@H]3CN[C@H](CNS(N)(=O)=O)C3)[C@H](C)[C@H]12` [Doripenem], the MIC ([1]; WT, NVT1001, read-out: MIC) is reported as 0.06 µg/mL (≈ 0.143 µM), the MIC ([1]; Δ35, ΔompK35 mutant) is reported as 0.06 µg/mL (≈ 0.143 µM) and the MIC ([1]; Δ35/36, ΔompK35/36 mutant) is reported as 0.125 µg/mL (≈ 0.297 µM). It also gave an MIC ([1]; Δ36, ΔompK36 mutant) of 0.06 µg/mL (≈ 0.143 µM), an MIC ([1]; ΔramR mutant) of 0.03 µg/mL (≈ 0.0713 µM) and an MIC ([1]; ΔramRΔ35, ΔramRΔompK35 mutant) of 0.03 µg/mL (≈ 0.0713 µM). The MIC ([1]; ΔramRΔ35/36, ΔramRΔompK35/36 mutant) was 0.5 µg/mL (≈ 1.19 µM), the MIC ([1]; ΔramRΔ36, ΔramRΔompK36 mutant) was 0.25 µg/mL (≈ 0.595 µM) and the MIC ([2]; ΔramRΔompK35/36::ompK35/36 revertant) was 0.06 µg/mL. It also gave an MIC ([2]; ΔramRΔompK35/36::ompK35 revertant) of 0.25 µg/mL, an MIC ([2]; ΔramRΔompK35/36::ompK36 revertant) of 0.06 µg/mL and an MIC ([2]; ΔramRΔompK35/36::ramR revertant) of 0.25 µg/mL. It also gave an MIC ([2]; ΔramRΔompK35/36::ramR::ompK35/36 revertant) of 0.06 µg/mL, an MIC ([2]; ΔramRΔompK35/36::ramR::ompK35 revertant) of 0.125 µg/mL and an MIC ([2]; ΔramRΔompK35/36::ramR::ompK36 revertant) of 0.125 µg/mL. It also gave an MIC ([2]; ΔramRΔompK35/36 mutant) of 0.5 µg/mL, an MIC ([3]; IMP-8 on pACYC177, WT (NVT1001), read-out: MIC) of 1 µg/mL and an MIC ([3]; IMP-8 on pACYC177, Δ35 (ΔompK35 mutant)) of 2 µg/mL. The MIC ([3]; IMP-8 on pACYC177, Δ35/36 (ΔompK35/36 mutant)) was greater than 32 µg/mL, the MIC ([3]; IMP-8 on pACYC177, Δ36 (ΔompK36 mutant)) was 2 µg/mL and the MIC ([3]; IMP-8 on pACYC177, ΔramR mutant) was 1 µg/mL. For the same compound, the MIC ([3]; IMP-8 on pACYC177, ΔramRΔ35 (ΔramRΔompK35 mutant)) was 2 µg/mL, the MIC ([3]; IMP-8 on pACYC177, ΔramRΔ35/36 (ΔramRΔompK35/36 mutant)) was 32 µg/mL and the MIC ([3]; IMP-8 on pACYC177, ΔramRΔ36 (ΔramRΔompK36 mutant)) was 32 µg/mL. The MIC ([3]; KPC-2 on pACYC177, WT (NVT1001), read-out: MIC) was 16 µg/mL, the MIC ([3]; KPC-2 on pACYC177, Δ35 (ΔompK35 mutant)) was 32 µg/mL and the MIC ([3]; KPC-2 on pACYC177, Δ35/36 (ΔompK35/36 mutant)) was greater than 32 µg/mL. It also gave an MIC ([3]; KPC-2 on pACYC177, Δ36 (ΔompK36 mutant)) greater than 32 µg/mL, an MIC ([3]; KPC-2 on pACYC177, ΔramR mutant) of 16 µg/mL and an MIC ([3]; KPC-2 on pACYC177, ΔramRΔ35 (ΔramRΔompK35 mutant)) of 32 µg/mL. It also gave an MIC ([3]; KPC-2 on pACYC177, ΔramRΔ35/36 (ΔramRΔompK35/36 mutant)) greater than 32 µg/mL, an MIC ([3]; KPC-2 on pACYC177, ΔramRΔ36 (ΔramRΔompK36 mutant)) greater than 32 µg/mL and an MIC ([3]; KPC-3 on pACYC177, WT (NVT1001), read-out: MIC) of 8 µg/mL. It also gave an MIC ([3]; KPC-3 on pACYC177, Δ35 (ΔompK35 mutant)) of 32 µg/mL, an MIC ([3]; KPC-3 on pACYC177, Δ35/36 (ΔompK35/36 mutant)) greater than 32 µg/mL and an MIC ([3]; KPC-3 on pACYC177, Δ36 (ΔompK36 mutant)) greater than 32 µg/mL. It also gave an MIC ([3]; KPC-3 on pACYC177, ΔramR mutant) of 16 µg/mL, an MIC ([3]; KPC-3 on pACYC177, ΔramRΔ35 (ΔramRΔompK35 mutant)) of 32 µg/mL and an MIC ([3]; KPC-3 on pACYC177, ΔramRΔ35/36 (ΔramRΔompK35/36 mutant)) greater than 32 µg/mL. For the same compound, the MIC ([3]; KPC-3 on pACYC177, ΔramRΔ36 (ΔramRΔompK36 mutant)) was greater than 32 µg/mL, the MIC ([3]; NDM-1 on pACYC177, WT (NVT1001), read-out: MIC) was 16 µg/mL and the MIC ([3]; NDM-1 on pACYC177, Δ35 (ΔompK35 mutant)) was 32 µg/mL. For the same compound, the MIC ([3]; NDM-1 on pACYC177, Δ35/36 (ΔompK35/36 mutant)) was greater than 32 µg/mL, the MIC ([3]; NDM-1 on pACYC177, Δ36 (ΔompK36 mutant)) was greater than 32 µg/mL and the MIC ([3]; NDM-1 on pACYC177, ΔramR mutant) was 32 µg/mL. It also gave an MIC ([3]; NDM-1 on pACYC177, ΔramRΔ35 (ΔramRΔompK35 mutant)) of 32 µg/mL, an MIC ([3]; NDM-1 on pACYC177, ΔramRΔ35/36 (ΔramRΔompK35/36 mutant)) greater than 32 µg/mL and an MIC ([3]; NDM-1 on pACYC177, ΔramRΔ36 (ΔramRΔompK36 mutant)) greater than 32 µg/mL. The MIC ([3]; OXA-48 on pACYC177, WT (NVT1001), read-out: MIC) was 2 µg/mL, the MIC ([3]; OXA-48 on pACYC177, Δ35 (ΔompK35 mutant)) was 2 µg/mL and the MIC ([3]; OXA-48 on pACYC177, Δ35/36 (ΔompK35/36 mutant)) was greater than 32 µg/mL. It also gave an MIC ([3]; OXA-48 on pACYC177, Δ36 (ΔompK36 mutant)) of 8 µg/mL, an MIC ([3]; OXA-48 on pACYC177, ΔramR mutant) of 2 µg/mL and an MIC ([3]; OXA-48 on pACYC177, ΔramRΔ35 (ΔramRΔompK35 mutant)) of 1 µg/mL. The MIC ([3]; OXA-48 on pACYC177, ΔramRΔ35/36 (ΔramRΔompK35/36 mutant)) was greater than 32 µg/mL, the MIC ([3]; OXA-48 on pACYC177, ΔramRΔ36 (ΔramRΔompK36 mutant)) was greater than 32 µg/mL and the MIC ([3]; VIM-1 on pACYC177, WT (NVT1001), read-out: MIC) was 16 µg/mL. It also gave an MIC ([3]; VIM-1 on pACYC177, Δ35 (ΔompK35 mutant)) of 32 µg/mL, an MIC ([3]; VIM-1 on pACYC177, Δ35/36 (ΔompK35/36 mutant)) greater than 32 µg/mL and an MIC ([3]; VIM-1 on pACYC177, Δ36 (ΔompK36 mutant)) greater than 32 µg/mL. The MIC ([3]; VIM-1 on pACYC177, ΔramR mutant) was 32 µg/mL, the MIC ([3]; VIM-1 on pACYC177, ΔramRΔ35 (ΔramRΔompK35 mutant)) was 32 µg/mL and the MIC ([3]; VIM-1 on pACYC177, ΔramRΔ35/36 (ΔramRΔompK35/36 mutant)) was greater than 32 µg/mL. It also gave an MIC ([3]; VIM-1 on pACYC177, ΔramRΔ36 (ΔramRΔompK36 mutant)) greater than 32 µg/mL, an MIC ([3]; no supplemental plasmid, WT (NVT1001), read-out: MIC) of 0.06 µg/mL and an MIC ([3]; no supplemental plasmid, Δ35 (ΔompK35 mutant)) of 0.06 µg/mL. The MIC ([3]; no supplemental plasmid, Δ35/36 (ΔompK35/36 mutant)) was 0.125 µg/mL, the MIC ([3]; no supplemental plasmid, Δ36 (ΔompK36 mutant)) was 0.06 µg/mL and the MIC ([3]; no supplemental plasmid, ΔramR mutant) was 0.03 µg/mL. It also gave an MIC ([3]; no supplemental plasmid, ΔramRΔ35 (ΔramRΔompK35 mutant)) of 0.03 µg/mL, an MIC ([3]; no supplemental plasmid, ΔramRΔ35/36 (ΔramRΔompK35/36 mutant)) of 0.5 µg/mL and an MIC ([3]; no supplemental plasmid, ΔramRΔ36 (ΔramRΔompK36 mutant)) of 0.25 µg/mL.
